Assay results taken from patent US5219741A, “Method of making L-proline using an N-acyl-L-protine acylase” (priority 1990, dated 1993).
Read-outs that look alike come from different tables or passages of the source.

How the values were obtained:
Assay type in all cases: biochemical, Comamonas testosteroni DSM 5416
N-acyl-L-proline acylase [1] = conditions: native enzyme, no agent = 100
Procedure: The enzymatic reaction was interrupted by pipetting 50 μl of the enzyme sample into 1.25 ml 100% acetic acid. Subsequently, 0.45 ml 0.1M tris-HCl buffer pH 7.0 and 1.25 ml ninhydrin reagent (3 g ninhydrin dissolved by heating in a mixture of 60 ml 100% acetic acid and 40 ml 6M phosphoric acid) were added. The ninhydrin reagent was freshly prepared daily. The test tubes were loosely closed with screw-on caps, incubated 30 minutes at 100° C. and subsequently cooled down in an ice bath.
The L-proline, liberated by the enzymatic hydrolysis, forms a red dye with ninhydrin at 100° C. The absorption of the red dye was measured in a spectrophotometer at 480 nm relative to a control batch without crude extract (=substrate blank). The concentration of the L-proline produced was determined using a straight calibration line with L-proline in a range of 5 to 100 nmoles per 50 μl specimen. The enzyme activity was indicated in international units; thus, one unit (U) corresponded to an amount of 1 μmole L-proline produced per minute.
The influence of various chemical agents as well as metal cations and anions on the reaction speed of the hydrolytic splitting of N-acetyl-L-proline was determined at 30° C. in a reaction batch with the following composition: […]
The enzyme was pre-incubated for 10 minutes at 30° C. with the compound before the addition of substrate to start the reaction.
The enzyme was pre-incubated for 10 minutes at 30° C. with the agent before the substrate was added to start the reaction.
The enzyme was pre-incubated 10 minutes at 30° C. with the agent before the substrate was added to start the reaction. The concentration of the anions was 10 mM in each instance.

[2] = test system: 1,10-phenanthroline-inactivated acylase (apoenzyme); test: Influence of cations on the 1,10-phenanthroline-inactivated acylase; conditions: inactivated enzyme after gel filtration + cation 1 mM; native enzyme = 100, no agent = 21
Procedure: FPLC/Mono Q purified enzyme was incubated for 24 hours at 4° C. in the presence of 1 mM 1,10-phenanthroline. Subsequently, enzyme and the chelating agent 1,10-phenanthroline were separated by gel filtration via Sephadex G-25M (PD-10, firm Pharmacia/LKB, Uppsala, Sweden). The enzyme-containing fractions were combined and the activity determined without and in the presence of various cations (1 mM).

N-acyl-L-proline acylase [3] = test: Substrate specificity: hydrolysis of N-acyl amino acids and proline derivatives
Procedure: The activity of acylase was determined with various N-acetyl-L-amino acids and N-chloroacetyl-L-amino acids in a reaction batch with the following composition:
The reaction temperature was 30° C. and the incubation time 15 minutes to 24 hours. 0.2 ml samples of the reaction batch in each instance were mixed at different times with 0.2 ml 10% (w/v) trichloroacetic acid and the denatured protein centrifuged off for 10 minutes at 11,000 rpms in a table centrifuge. The supernatant was diluted with a 0.1M Na citrate buffer pH 2.2 with 25% (v/v) 2.2-thiodiethanol and 0.1% (v/v) phenol 1:5 and 1:50 respectively. The amino acids released were quantitatively detected by an amino-acid analyzer LC 5001 of the firm Biotronic, Maintal, Federal Republic of Germany. In Table 16, the substrates marked with * and the corresponding products were quantified by means of HPLC.
The activity of the acylase was determined with various proline derivatives as under a).

N-acyl-L-proline acylase [4] = test: Stereospecificity of hydrolysis of N-acetyl-D,L-proline
Procedure: The hydrolysis of N-acyl-L-proline, N-acetyl-D,L-proline and N-acetyl-D-proline was determined in the following reaction mixture:
The reaction mixture was incubated for two hours at 30° C. and the L-proline produced was determined by amino acid analysis as in Example 10.

| SMILES | Activity (%) (N-acyl-L-proline acylase [1]; metal cation salt 1 mM) | Activity (%) (N-acyl-L-proline acylase [1]; metal cation salt 10 mM) | Activity (%) [2] [%] | Hydrolysis by the acylase (in words) (N-acyl-L-proline acylase [3]) | Relative Activity (%) (N-acyl-L-proline acylase [3]; proline derivatives, 30° C., pH 7.0, N-acetyl-L-proline = 100%) | Stereospecific hydrolysis (in words) (N-acyl-L-proline acylase [4]) | L-proline (mmol/l) produced (N-acyl-L-proline acylase [4]; substrate 10 mmol/l, two hours at 30° C., pH 7.0) [mmol/L] |
| --- | --- | --- | --- | --- | --- | --- | --- |
| [Cl][Fe]([Cl])[Cl] [FeCl3] | 83 | 58 | 5 |  |  |  |  |
| [Cl][Mn][Cl] [MnCl2] | 104 | 103 | 23 |  |  |  |  |
| O=S(=O)([O-])[O-].[Fe+2] [FeSO4] | 20 |  | 12 |  |  |  |  |
| CC(=O)N1CCC[C@@H]1C(=O)O [N-acetyl-D-proline] |  |  |  | not hydrolized | 0 | not | < 0.01 |
| [Ba+2].[Cl-].[Cl-] [BaCl2] | 100 | 99 | 18 |  |  |  |  |
| [Cl-].[Cl-].[Mg+2] [MgCl2] | 106 | 99 | 25 |  |  |  |  |
| [Cl-].[Cl-].[Sr+2] [SrCl2] | 104 | 100 | 23 |  |  |  |  |
